Where only a bound is given, the exact number is not on record here.

The results in this text go back to a melting point compilation (Tetko et al.; mined from patent text by program, amines drawn as free bases though some values may be those of a salt).

As usually defined, the melting point is the temperature of the solid-liquid transition. `CCOC(=O)c1c(N)c(C)c(C)n1C` registered a melting point of 63 to 64 °C. In turn, `CC(C)(C)C(=O)ON=C(N)CN1C(=O)C2(COc3cc4c(cc32)OCO4)c2ccccc21` (centres undefined) registered a melting point of 183 to 185 °C. For the molecule `CCCCCCCCCCCc1[nH]c2ccc(C(=O)OC)cc2c1C=O`, the melting point fell in the range of 162 to 165 °C. In the case of `COc1cc(CCCC(=O)O)ccc1C` it was 69 to 70 °C; in that of `CCCCOc1nc(N)c2[nH]c(=O)n(CCN(C)Cc3cccc(CC(=O)O)c3)c2n1`, 164 to 166 °C; in that of `COc1cc(C=C2CCN(C(=O)NOCc3ccccc3)C2=O)cc(OC)c1O`, 167 to 170 °C. In the case of `O=C1C(Cl)=C(N2CCN(C(=O)Nc3ccccc3Cl)CC2)C(=O)c2ccccc21`, the melting point lay within 160 to 163 °C. Molecule `O=C(Nc1ccc(N2CCN(C(=O)Nc3ccc(OCCO)cc3C(F)(F)F)CC2)cc1)Nc1ccccc1F` showed a melting point of 219 to 220 °C. Molecule `COc1ccc(C(=CC(=O)N2CCOCC2)c2ccc(Oc3nc(Cl)nc(Cl)n3)cc2)cc1OC` showed a melting point of 90 to 100 °C. In the case of `c1ccc2c(c1)ccn2Nc1ccncn1` it was 81 to 85 °C. On to `CC1CC(c2c[nH]c(-c3ccc(F)cc3)c2-c2ccncc2)=CCN1C` (centres undefined), for which the melting point fell in the range of 198 to 201 °C. Molecule `O=C1CC2(CC=CC2)CC(=O)O1` showed a melting point of 64 to 65 °C. The molecule `CC(C)(C)OC(=O)N1CCN(c2ccc(N3C[C@H](CN)OC3=O)cc2F)CC1` gave a melting point of 184 °C. The molecule `Cn1nc(-c2cc(C(C)(C)C)c(O)c(C(C)(C)C)c2)c2cccnc21` registered a melting point of 152 to 154 °C. With `COc1ccc(C(F)(F)C(F)(F)F)cc1-c1csc(N)n1`, the melting point is 125 °C. Regarding `C[C@H](CN1CC=C(c2cccs2)CC1)Nc1ccccn1`, the melting point lay within 63 to 68 °C. In turn, `O=C(C1=CNCCS1)c1ccc(F)cc1` yielded a melting point of 212 to 214 °C. The molecule `CCOc1cc(CN2C(=O)c3ccccc3C2=O)c2c(c1)Oc1c(ccc(OCC)c1CO[Si](C)(C)C(C)(C)C)N2CC` returned a melting point of 158 to 159 °C. In the case of `CCC(O)(CC)c1ccc(Cl)c2nc3n(c12)CCCN3c1ccc(Cl)cc1C(F)(F)F`, the melting point lay within 178 to 180 °C. `CCCCCCCCCCCCCCCCOc1cccc(O)c1C` returned a melting point of 53 to 54 °C. The molecule `O=[N+]([O-])c1cc(F)c(N2CCNCC2)cc1Cl` displayed a melting point of 91.5 °C. In the case of `c1ccc(-c2ccc3[nH]c4ccc(-c5ccccc5)cc4c3c2)cc1` it was 145 to 147 °C. Molecule `CCCCc1nnc(SCC2CCCCC2)n1Cc1ccc(-c2ccccc2-c2nnn[nH]2)cc1` registered a melting point of 89 to 91 °C. Under `O=C(CSCc1ccc2c(c1)OCO2)NO` stands 127 to 128 °C. In the case of `COc1ccc(Cc2cnc(NCCSCc3nccs3)[nH]c2=O)cn1`, the melting point was 95 to 97 °C. Under `CC1(C2CC2)NC(=O)Nc2ccc(-c3cccc(Cl)c3)cc21` (centres undefined) stands 125 to 127 °C. In turn, `CCNC(=O)c1ccsc1[Si](C)(C)C` registered a melting point of 114 to 116 °C.

Consider `CCCC(C(=O)OCC)c1ccc(N2Cc3ccccc3C2=N)cc1` (centres undefined), for which the melting point lay in the range of 158 to 160 °C.

`Cc1cccc(-c2nc3cccnn3c2-c2ccnc(NC(=O)c3ccccc3)c2)c1` displayed a melting point of 178 to 180 °C. Under `COc1ccc(/C=N/Nc2nccc(C(F)(F)F)n2)cc1OC1CCCC1` stands 73 to 75 °C; under `O=C1CCN(Cc2ncccc2O)CC1C(c1ccccc1)c1ccccc1` (centres undefined), 121 to 122 °C; under `COc1cc2c(cc1OC)C(C)(C)Oc1c-2c(OC)cc2oc(C(=O)O)cc(=O)c12`, 263 to 264 °C. Consider `CS(=O)c1cc(-c2nc(=O)c3ccccc3s2)ccn1` (centres undefined), for which the melting point was in the range of 172 to 174 °C. In turn, `Cc1cnc(CN2CCNC2=C[N+](=O)[O-])cn1` came in with a melting point of 163 to 166 °C.

With `COC(=O)c1ccc(-c2nsc3nc4ccccc4n23)cc1`, the melting point fell in the range of 204 to 206 °C.

`CCC(C)c1nn(-c2ccc(C(F)(F)F)cn2)cc1CO` (centres undefined) showed a melting point of 76 to 77 °C.

Take `CC1(C)CCC(C)(C)c2cc(-c3cc(Br)cc(C(=O)O)c3)ccc21`: the melting point turned out to be 165 °C. Regarding `COc1ccc(C(C)COc2nc(N)c3ncn(C4OC(CO)C(O)C4O)c3n2)cc1` (centres undefined), the melting point lay within 90 to 105 °C. With `CC(c1cccc(-c2ncc(OCCCN(C)C)cn2)c1)n1nc(-c2cccc(C#N)c2)ccc1=O` (centres undefined), the melting point was 105 to 107 °C. `Cc1ccc(N2C(=O)c3ccccc3C2O)nn1` (centres undefined) gave a melting point of 232 °C. The molecule `NC(=O)N1CCC(Br)C1=O` (centres undefined) returned a melting point of 128 to 129 °C. Consider `O=C1Cc2ccc(-c3cnc4[nH]c(=O)n(CC5CCCCC5)c4n3)cc2N1`, for which the melting point was 334 to 336 °C. With `COc1cc(C=O)ccc1OCCCCl`, the melting point was 53 to 55 °C. With `COc1ccc(C(=O)Nc2ccccc2)cc1NC(=S)Nc1ccccc1`, the melting point lay in the range of 174 to 176 °C.

The molecule `CCOc1c(OC)cc([N+](=O)[O-])c2ncccc12` displayed a melting point of 88 to 95 °C. For the molecule `O=C1C(c2ccc(O)cc2)=C(c2ccccc2)c2c(O)cc(O)cc21`, the melting point was 223 to 225 °C.

As to `COc1cc2c(cc1F)C(c1ccccc1Cl)=NC1=CNNC1=N2`, the melting point lay within 242 to 243 °C. `Cc1cc(Oc2ccc(S(C)(=O)=O)nc2)cc2cc(C3=NCC(CC(=O)N4CCS(=O)CC4)S3)[nH]c12` (centres undefined) displayed a melting point of 157 to 160 °C.

Turning to `CSc1nnnc2c1sc1nc(C)ccc12`, the melting point was 197 to 198 °C. `CN(C(=O)OC(C)(C)C)c1cc(Oc2cc(C(C)(C)C)c(O)cc2C(C)(C)C)ccc1N` registered a melting point of 208 to 210 °C.

With `O=C(O)CCCCCCCCCCCOc1ccccc1OCCCC(=O)O`, the melting point worked out at 105 °C. As for `O=C1Nc2cccnc2N(CC#CCN2CCCCC2)c2ccccc21`, the melting point was 198 °C.

`Cc1ccccc1C(=O)Nc1c(NC(=O)CCl)ccc2c1C(=O)c1ccccc1C2=O` yielded a melting point of 179 to 180 °C. Turning to `COC(=S)OC(C(=O)O)c1ccccc1` (centres undefined), the melting point was 86 to 87 °C. For the molecule `COC(=O)C1(C)CN(C(=O)Nc2ccc(Cl)cc2)N=C1c1ccc(Cl)cc1` (centres undefined), the melting point amounted to 122 °C. `CC(=O)NCCc1c[nH]c2ncccc12` displayed a melting point of 168 °C. Under `Cc1nc(-c2cccc(NC(=O)N3CCc4c(cnc5[nH]ncc45)C3)c2)no1` stands above 140 °C; under `O=[N+]([O-])c1ccc2c(c1)CCN(C[C@H](O)C(F)(F)F)CC2`, 82 to 85 °C; under `CC(C)c1cc(C(C)C)c(CC(=O)NS(=O)(=O)Oc2c(C(C)C)cc([N+](=O)[O-])cc2C(C)C)c(C(C)C)c1`, 85 to 89 °C. Take `CCOP(=O)(CC(=O)NC1CC1)OCC`: the melting point was in the range of 51 to 56 °C. With `CCC(=O)Nc1cccc(C2(c3cc(C(=O)CC)n(CC)c3)N=C(N)N(C)C2=O)c1` (centres undefined), the melting point was 120 to 141 °C.

Consider `COc1ccc(S(=O)(=O)N2C(=O)C(O)(c3ccccc3OC)c3cc(Cl)c(C)cc32)c(OC)c1` (centres undefined), for which the melting point was 207 to 208 °C. Turning to `O=C(Nc1cccc2c(CBr)c(Br)cnc12)c1c(Cl)cccc1Cl`, the melting point lay within 210 to 213 °C. In the case of `CCOC(=O)/C=C/c1cc(-n2cnnc2)cc(C(F)(F)F)c1N` it was 225 to 227 °C.
